Data: ChEMBL document CHEMBL6078674, “Genome Mining of the Marine-Derived Fungus Trichoderma erinaceum F1-1 Unearths Bergamotene-Type Sesquiterpenoids” (J Nat Prod, 2024)

Key:
RAW264.7 = assay: Antiinflammatory activity in mouse RAW264.7 cells; type: functional, cell-based
Staphylococcus aureus = assay: Antibacterial activity against methicillin-resistant Staphylococcus aureus; type: functional, organism-based
RKO = assay: Cytotoxicity against human RKO cells; type: functional, cell-based
A549 = assay: Cytotoxicity against human A549 cells; type: functional, cell-based

Measured: IC50

C/C(=C\CC[C@]1(C)[C@H]2CC(=O)[C@](C)(O)[C@@H]1C2)C(=O)O
> 50 µM: RAW264.7 | Staphylococcus aureus | RKO | A549

CC(C)=CCC[C@]1(C)[C@H]2CC(=O)[C@](C)(O[C@H]3O[C@H](CO)[C@@H](O)[C@H](O)[C@H]3O)[C@@H]1C2
> 50 µM: RAW264.7 | Staphylococcus aureus | RKO | A549

CC(C)=CCC[C@]1(C)[C@@H]2C[C@H]1[C@@](C)(O)C(=O)C2=O
> 50 µM: RAW264.7 | Staphylococcus aureus | RKO | A549

CC(C)=CCC[C@]1(C)[C@@H]2C[C@H]1[C@@](C)(O)C(=O)[C@H]2O
> 50 µM: RAW264.7 | Staphylococcus aureus | RKO | A549

C/C(=C\CC[C@]1(C)[C@H]2CC(=O)[C@@H](C)[C@@H]1C2)CO
> 50 µM: RAW264.7 | Staphylococcus aureus | RKO | A549

CC(C)=CCC[C@]1(C)[C@@H]2C[C@H]1C(C)=C[C@H]2O[C@H]1O[C@H](CO)[C@@H](O)[C@H](O)[C@H]1O
> 50 µM: RAW264.7 | Staphylococcus aureus | RKO | A549

CC(=O)[C@@H]1C[C@H](CC(=O)O)[C@@]1(C)CCC=C(C)C
> 50 µM: RAW264.7 | Staphylococcus aureus | RKO | A549

C/C(=C\CC[C@]1(C)[C@H]2CC(=O)[C@](C)(O)[C@@H]1C2)CO
> 50 µM: RAW264.7 | Staphylococcus aureus | RKO | A549
